Assay results: the NIST ThermoML archive (doi:10.1021/je049612f)
± gives the expanded uncertainty stated by the source.

Settings: Gas, Vibrating wire viscometry

FS(F)(F)(F)(F)F [sulfur hexafluoride]
Settings | viscosity [mPa·s]
300 K, 26.36 kPa | 0.01529 ± 0.00089
300 K, 50.94 kPa | 0.01531 ± 0.00089
300 K, 73.62 kPa | 0.01532 ± 0.00089
300 K, 105.89 kPa | 0.01532 ± 0.00089
300 K, 125.7 kPa | 0.01533 ± 0.00089
300 K, 152.62 kPa | 0.01533 ± 0.00089
300 K, 177.62 kPa | 0.01533 ± 0.00089
300 K, 195.25 kPa | 0.01534 ± 0.00089
300 K, 227.52 kPa | 0.01534 ± 0.00089
300 K, 251.51 kPa | 0.01535 ± 0.00089
300 K, 278.58 kPa | 0.01535 ± 0.00089
300 K, 301.45 kPa | 0.01535 ± 0.00089
300 K, 327.3 kPa | 0.01536 ± 0.00089
300 K, 353.41 kPa | 0.01536 ± 0.00089
300 K, 378.55 kPa | 0.01537 ± 0.00089
300 K, 401.57 kPa | 0.01537 ± 0.00089
300 K, 425.72 kPa | 0.01538 ± 0.00089
300 K, 444.52 kPa | 0.01538 ± 0.00089
300 K, 471.71 kPa | 0.01539 ± 0.00089
300 K, 491.53 kPa | 0.0154 ± 0.00089
300 K, 538.31 kPa | 0.01541 ± 0.00089
300 K, 565.24 kPa | 0.01542 ± 0.00089
300 K, 597.98 kPa | 0.01543 ± 0.00089
300 K, 634.58 kPa | 0.01544 ± 0.00089
300 K, 665.1 kPa | 0.01545 ± 0.00089
300 K, 700.96 kPa | 0.01546 ± 0.00089
300 K, 731.45 kPa | 0.01547 ± 0.00089
300 K, 763.98 kPa | 0.01548 ± 0.00089
300 K, 800.2 kPa | 0.01549 ± 0.00089
300 K, 835.89 kPa | 0.01551 ± 0.00089
300 K, 869.95 kPa | 0.01553 ± 0.00089
300 K, 898.41 kPa | 0.01554 ± 0.00089
300 K, 930.75 kPa | 0.01556 ± 0.00089
300 K, 968.74 kPa | 0.01558 ± 0.00089
300 K, 997.76 kPa | 0.01559 ± 0.00089
300 K, 1036.4 kPa | 0.01561 ± 0.0009
300 K, 1090.2 kPa | 0.01565 ± 0.0009
300 K, 1140.1 kPa | 0.01568 ± 0.0009
300 K, 1181.5 kPa | 0.0157 ± 0.0009
300 K, 1223.6 kPa | 0.01574 ± 0.0009
300 K, 1280.6 kPa | 0.01578 ± 0.0009
300 K, 1333.3 kPa | 0.01582 ± 0.0009
300 K, 1380.9 kPa | 0.01586 ± 0.0009
300 K, 1417.9 kPa | 0.01589 ± 0.0009
300 K, 1493.3 kPa | 0.01596 ± 0.0009
300 K, 1537.7 kPa | 0.016 ± 0.0009
300 K, 1594.6 kPa | 0.01606 ± 0.0009
300 K, 1637.3 kPa | 0.01611 ± 0.0009
300 K, 1680.6 kPa | 0.01616 ± 0.0009
300 K, 1735.3 kPa | 0.01622 ± 0.0009
300 K, 1784.4 kPa | 0.01629 ± 0.0009
300 K, 1826.5 kPa | 0.01635 ± 0.0009
300 K, 1865.1 kPa | 0.01641 ± 0.0009
300 K, 1927.3 kPa | 0.0165 ± 0.0009
300 K, 1980 kPa | 0.01659 ± 0.0009
300 K, 2039.3 kPa | 0.0167 ± 0.0009
316 K, 112.75 kPa | 0.01605 ± 0.0009
316 K, 143.54 kPa | 0.01605 ± 0.0009
316 K, 174.6 kPa | 0.01606 ± 0.0009
316 K, 197.59 kPa | 0.01606 ± 0.0009
316 K, 218.05 kPa | 0.01607 ± 0.0009
316 K, 245.03 kPa | 0.01607 ± 0.0009
316 K, 262.84 kPa | 0.01607 ± 0.0009
316 K, 287.46 kPa | 0.01608 ± 0.0009
316 K, 307.35 kPa | 0.01608 ± 0.0009
316 K, 332.06 kPa | 0.01609 ± 0.0009
316 K, 357.7 kPa | 0.0161 ± 0.0009
316 K, 383.76 kPa | 0.0161 ± 0.0009
316 K, 402.43 kPa | 0.01611 ± 0.0009
316 K, 428.01 kPa | 0.01611 ± 0.0009
316 K, 468.39 kPa | 0.01613 ± 0.0009
316 K, 490.91 kPa | 0.01613 ± 0.0009
316 K, 519.48 kPa | 0.01614 ± 0.0009
316 K, 548.34 kPa | 0.01615 ± 0.0009
316 K, 585.01 kPa | 0.01616 ± 0.0009
316 K, 614.48 kPa | 0.01617 ± 0.0009
316 K, 650.85 kPa | 0.01618 ± 0.0009
316 K, 685.07 kPa | 0.0162 ± 0.0009
316 K, 712.63 kPa | 0.0162 ± 0.0009
316 K, 749.05 kPa | 0.01622 ± 0.0009
316 K, 780.4 kPa | 0.01623 ± 0.0009
316 K, 810.74 kPa | 0.01624 ± 0.0009
316 K, 843.2 kPa | 0.01626 ± 0.0009
316 K, 882.81 kPa | 0.01628 ± 0.0009
316 K, 913.9 kPa | 0.01629 ± 0.0009
316 K, 955.92 kPa | 0.01631 ± 0.0009
316 K, 994.72 kPa | 0.01634 ± 0.0009
316 K, 1031.1 kPa | 0.01635 ± 0.0009
316 K, 1084.1 kPa | 0.01638 ± 0.0009
316 K, 1120.4 kPa | 0.01641 ± 0.0009
316 K, 1178.3 kPa | 0.01644 ± 0.0009
316 K, 1215.2 kPa | 0.01646 ± 0.0009
316 K, 1257.3 kPa | 0.0165 ± 0.0009
316 K, 1314.3 kPa | 0.01654 ± 0.0009
316 K, 1374.4 kPa | 0.01658 ± 0.0009
316 K, 1422.9 kPa | 0.01662 ± 0.0009
316 K, 1465.6 kPa | 0.01665 ± 0.0009
316 K, 1530.4 kPa | 0.01671 ± 0.0009
316 K, 1572.7 kPa | 0.01674 ± 0.0009
316 K, 1609.8 kPa | 0.01678 ± 0.0009
316 K, 1667.2 kPa | 0.01684 ± 0.0009
316 K, 1724.2 kPa | 0.01689 ± 0.0009
316 K, 1772.5 kPa | 0.01694 ± 0.00091
316 K, 1821.1 kPa | 0.017 ± 0.00091
316 K, 1860.3 kPa | 0.01704 ± 0.00091
316 K, 1922.7 kPa | 0.01711 ± 0.00091
316 K, 1988.5 kPa | 0.0172 ± 0.00091
316 K, 2021.6 kPa | 0.01725 ± 0.00091
316 K, 2087.4 kPa | 0.01733 ± 0.00091
316 K, 2155.2 kPa | 0.01744 ± 0.00091
316 K, 2223.8 kPa | 0.01755 ± 0.00091
316 K, 2273.2 kPa | 0.01763 ± 0.00091
316 K, 2319.1 kPa | 0.01771 ± 0.00091
316 K, 2375.8 kPa | 0.01781 ± 0.00091
316 K, 2448.5 kPa | 0.01796 ± 0.00091
316 K, 2510 kPa | 0.01809 ± 0.00092
316 K, 2587.2 kPa | 0.01826 ± 0.00092
316 K, 2658.2 kPa | 0.01844 ± 0.00092
316 K, 2724.3 kPa | 0.01862 ± 0.00092
316 K, 2792.7 kPa | 0.01883 ± 0.00092
316 K, 2860.9 kPa | 0.01906 ± 0.00092
316 K, 2916.5 kPa | 0.01925 ± 0.00092
316 K, 2981.1 kPa | 0.0195 ± 0.00093
316 K, 3007.9 kPa | 0.01963 ± 0.00093
316 K, 3070 kPa | 0.01992 ± 0.00093
316 K, 3135.2 kPa | 0.02025 ± 0.00093
321 K, 77.46 kPa | 0.01627 ± 0.0009
321 K, 97.02 kPa | 0.01627 ± 0.0009
321 K, 114.16 kPa | 0.01627 ± 0.0009
321 K, 146.57 kPa | 0.01628 ± 0.0009
321 K, 169.96 kPa | 0.01629 ± 0.0009
321 K, 205.62 kPa | 0.01629 ± 0.0009
321 K, 239.58 kPa | 0.0163 ± 0.0009
321 K, 264.1 kPa | 0.0163 ± 0.0009
321 K, 293.39 kPa | 0.01631 ± 0.0009
321 K, 339.65 kPa | 0.01632 ± 0.0009
321 K, 374.89 kPa | 0.01633 ± 0.0009
321 K, 400.93 kPa | 0.01634 ± 0.0009
321 K, 428.98 kPa | 0.01634 ± 0.0009
321 K, 457.31 kPa | 0.01635 ± 0.0009
321 K, 488.99 kPa | 0.01636 ± 0.0009
321 K, 523.86 kPa | 0.01637 ± 0.0009
321 K, 563.16 kPa | 0.01638 ± 0.0009
321 K, 592.18 kPa | 0.01639 ± 0.0009
321 K, 633.22 kPa | 0.01641 ± 0.0009
321 K, 681.18 kPa | 0.01643 ± 0.0009
321 K, 732.46 kPa | 0.01644 ± 0.0009
321 K, 790.88 kPa | 0.01647 ± 0.0009
321 K, 823.55 kPa | 0.01648 ± 0.0009
321 K, 857.52 kPa | 0.0165 ± 0.0009
321 K, 896.2 kPa | 0.01652 ± 0.0009
321 K, 934.23 kPa | 0.01654 ± 0.0009
321 K, 969 kPa | 0.01655 ± 0.0009
321 K, 1031.4 kPa | 0.01658 ± 0.0009
321 K, 1089.4 kPa | 0.01662 ± 0.0009
321 K, 1125 kPa | 0.01664 ± 0.0009
321 K, 1178.7 kPa | 0.01667 ± 0.0009
321 K, 1223.2 kPa | 0.0167 ± 0.0009
321 K, 1282.4 kPa | 0.01674 ± 0.0009
321 K, 1340 kPa | 0.01678 ± 0.0009
321 K, 1386.2 kPa | 0.01682 ± 0.0009
321 K, 1431.8 kPa | 0.01686 ± 0.0009
321 K, 1483.3 kPa | 0.01689 ± 0.0009
321 K, 1538.9 kPa | 0.01694 ± 0.00091
321 K, 1647 kPa | 0.01703 ± 0.00091
321 K, 1693.1 kPa | 0.01708 ± 0.00091
321 K, 1744.5 kPa | 0.01713 ± 0.00091
321 K, 1788.6 kPa | 0.01718 ± 0.00091
321 K, 1847.4 kPa | 0.01724 ± 0.00091
